{"source": "patent US20260347280A1", "about": "“DEUTERATED HINOKITIOL DERIVATIVES” (priority 2022, published 2026)", "key": {"[1]": {"assay": "Dynamic light scattering (aggregation)", "assay_type": "physicochemical", "settings": "for aggregation tendency: aqueous media, in words", "description": "Dynamic light scattering was performed on a Malvern Zetasizer Nano using disposable cuvettes. […] Compound at the specified concentration (from 1000× in DMSO), as well as equimolar FeCl3 (1000× in 0.1 M HCl) were added to this buffer. After addition, these compounds were vortexed for 30 sec, sonicated for one min, then further vortexed for 30 sec before a five-minute equilibration in the Zetasizer at 37 °C. All standard parameters were used, with each graph representing a minimum of thirty 10 second measurements. For count rate analysis, the raw count rate was utilized, accounting for any differences in attenuator position between samples."}, "[2]": {"assay": "Liposome efflux assay (Fe3+ liposomal efflux, cell-free iron efflux)", "assay_type": "biochemical", "settings": "for iron mobilization capacity / cell-free iron transport, effect of deuteration: deuterated vs protio compound, cell-free iron efflux, 37 °C, 40 min; for iron transport capability at higher concentrations: Fe3+ liposomal efflux, 50-150 μM, compared with hinokitiol or Tri-Methyl", "description": "After evaporation under a stream of nitrogen, films were placed under hi-vacuum for 18 hours to ensure quantitative solvent removal. […] LUVs were subjected to size exclusion chromatography, using a ~20 cm column of Sephadex® G-50 Medium resin that was hydrated in liposome outside buffer (600 mM sodium ascorbate, 50 mM MES/TRIS pH 7.0).\nDetermination of total phosphorous was performed utilizing the Bartlett Assay. Briefly, the LUV suspension was diluted 10-fold in liposome outside buffer, then 10 μL of this solution was placed in three 7 mL vials along with 10 μL of liposome outside buffer for background. […] The samples were then allowed to fully cool and diluted using 3.9 mL of Milli-Q water. […] of 2.5% w/v ammonium molybdate was then added, then the samples were vortexed, then […] of 10% w/v ascorbic acid was added. The samples were then re-vortexed, capped, and heated at 100 °C for seven minutes. The samples were allowed to fully cool then read at A820 and compared to a phosphorous standard curve to determine the total quantity of phosphorous.\n16 mL of liposome suspension was created with the following components: […] of ferrozine solution (100× stock, 50 mM in liposome outside buffer), LUV suspension (to a final concentration of 1 mM phosphorous), and liposome outside buffer up to 16 mL. […] of liposome suspension was then added to a 96 well plate (NUM) using a multichannel pipettor. The plate was then placed in a plate reader and equilibrated at 37 °C for 5 minutes, then read for a baseline measurement. Following this equilibration, compound was added at the designated concentrations (40× stock in DMSO) using a multichannel pipettor, and the plate was then incubated at 37 °C for 40 min. Reads were taken every minute at A562 and the plate mixed at 220 rpm. Total iron efflux was determined via […]-iron complex signal. These experiments were performed in triplicate, with a minimum of two biological replicates."}, "[3]": {"settings": "compared with hinokitiol; cited from earlier work"}, "[4]": {"test_system": "divalent metal transporter 1 (DMT1−) deficient cells and animals", "settings": "cited from earlier work"}, "[5]": {"assay": "Complex formation with iron / crystallographic data", "assay_type": "physicochemical"}, "[6]": {"settings": "background; cited from earlier work"}, "shDMT1-Caco-2 monolayer": {"test_system": "shDMT1-Caco-2 monolayer", "assay": "Iron transport in differentiated shDMT1(-Caco-2) monolayers", "assay_type": "cell-based"}, "[7]": {"test_system": "mitoferrin 1 (MFRN1−) deficient cells and animals", "settings": "cited from earlier work"}, "[8]": {"test_system": "ferroportin 1 (FPN1−) deficient cells and animals", "settings": "cited from earlier work"}}, "note": "“Also recorded” adds a separate entry of the source."}
{"smiles": "CCCCc1cccc(=O)c(O)c1", "note": "[4 nBu, 2-hydroxy-4-butylcyclohepta-2,4,6-trien-1-one]", "values": [{"measurement": "aggregation tendency", "setting": "[1]", "value": "highly aggregating"}, {"measurement": "concentration of compound at which noticeable transport ceases", "setting": "[2]; liposome efflux assay, due to higher order aggregation", "value": 40, "unit": "µM"}]}
{"smiles": "[2H]C([2H])([2H])C([2H])([2H])C([2H])([2H])C([2H])([2H])c1cccc(=O)c(O)c1", "note": "[4 nBu-d9, 2-hydroxy-4-(butyl-d9)cyclohepta-2,4,6-trien-1-one]", "values": [{"measurement": "iron mobilization capacity / cell-free iron transport, effect of deuteration", "setting": "[2]", "value": "maintains transport levels at concentrations when the parent compound suffers from limiting higher order aggregation"}, {"measurement": "iron mobilization capacity / cell-free iron transport, effect of deuteration", "setting": "[2]; listed as 4-n-buytl-(d9)-tropolone", "value": "extends transport window"}, {"measurement": "concentration of compound up to which noticeable transmembrane transport of iron is demonstrated", "setting": "[2]; liposome efflux assay, before dropping to baseline", "value": 75, "unit": "µM"}]}
{"smiles": "CC(C)c1ccc(O)c(=O)cc1", "note": "[GT]", "values": [{"measurement": "iron mobilization capacity / cell-free iron transport, effect of deuteration", "setting": "[2]", "value": "no deuteration effect on cell-free iron transport"}, {"measurement": "aggregation, previously shown", "setting": "[3]", "value": "less aggregation"}]}
{"smiles": "Cc1cc(C)c(O)c(=O)c(C)c1", "note": "[Tri-Methyl]", "values": [{"measurement": "aggregation tendency", "setting": "[1]", "value": "aggregates less"}]}
{"smiles": "[2H]C([2H])([2H])C([2H])(c1cccc(=O)c(O)c1)C([2H])([2H])[2H]", "note": "[hinokitiol-d7, 2-hydroxy-4-(isopropyl-d7)-cyclohepta-2,4,6-trien-1-one]", "values": [{"measurement": "aggregation by dynamic light scattering", "setting": "[1]; 20-100 μM with equimolar iron, pH 7.0, 37 °C", "value": "aggregates less via lesser photon deflection counts and particle size"}, {"measurement": "iron transport capability at higher concentrations", "setting": "[2]", "value": "significantly greater iron transport capability at higher concentrations (50-150 μM) when compared to hinokitiol"}]}
{"smiles": "CC(C)c1cccc(=O)c(O)c1", "note": "[hinokitiol]", "values": [{"measurement": "restoration of iron homeostasis", "setting": "[4]", "value": "restores iron homeostasis"}, {"measurement": "complex formation with Fe(III)", "setting": "[5]", "value": "forms a 3:1 complex with Fe(III)"}, {"measurement": "complex formation with iron", "setting": "[6]", "value": "reversibly forming a 3:1 complex with iron"}, {"measurement": "iron transport / mobilization", "setting": "shDMT1-Caco-2 monolayer", "value": "effectively mobilizes iron at low-to-intermediate concentrations; also recorded: at higher concentrations, a substantial decrease in transmembrane mobilizing activity was observed"}, {"measurement": "aggregation tendency", "setting": "[1]", "value": "predisposed at higher concentrations to form higher-order aggregates; also recorded: formation of higher-order aggregates in aqueous media"}, {"measurement": "aggregation tendency", "setting": "[1]; listed as Hinokitiol", "value": "highly aggregative"}, {"measurement": "restoration of iron homeostasis", "setting": "[7]", "value": "restores iron homeostasis"}, {"measurement": "iron transport capability at higher concentrations", "setting": "[2]", "value": "begins to aggregate"}, {"measurement": "restoration of iron homeostasis", "setting": "[8]", "value": "restores iron homeostasis"}]}
